From PMC7246923, “Inhibition of Xanthine Oxidase-Catalyzed Xanthine and 6-Mercaptopurine Oxidation by Flavonoid Aglycones and Some of Their Conjugates” (International Journal of Molecular Sciences, 2020)
pIC50: −log10 of the molar value. Like-named read-outs stand apart in the source and are kept apart here.

Experiments:
[1] = molecular target: T1, Xanthine oxidase (XO; from bovine milk) (Bos taurus, UniProt P80457); assay: XO-catalyzed 6-mercaptopurine oxidation (6-thiouric acid formation), HPLC; type: biochemical
T1 construct: Xanthine oxidase (XO; from bovine milk); purchased Sigma-Aldrich; host or cells: bovine milk
T1 sequence (P80457 whole entry): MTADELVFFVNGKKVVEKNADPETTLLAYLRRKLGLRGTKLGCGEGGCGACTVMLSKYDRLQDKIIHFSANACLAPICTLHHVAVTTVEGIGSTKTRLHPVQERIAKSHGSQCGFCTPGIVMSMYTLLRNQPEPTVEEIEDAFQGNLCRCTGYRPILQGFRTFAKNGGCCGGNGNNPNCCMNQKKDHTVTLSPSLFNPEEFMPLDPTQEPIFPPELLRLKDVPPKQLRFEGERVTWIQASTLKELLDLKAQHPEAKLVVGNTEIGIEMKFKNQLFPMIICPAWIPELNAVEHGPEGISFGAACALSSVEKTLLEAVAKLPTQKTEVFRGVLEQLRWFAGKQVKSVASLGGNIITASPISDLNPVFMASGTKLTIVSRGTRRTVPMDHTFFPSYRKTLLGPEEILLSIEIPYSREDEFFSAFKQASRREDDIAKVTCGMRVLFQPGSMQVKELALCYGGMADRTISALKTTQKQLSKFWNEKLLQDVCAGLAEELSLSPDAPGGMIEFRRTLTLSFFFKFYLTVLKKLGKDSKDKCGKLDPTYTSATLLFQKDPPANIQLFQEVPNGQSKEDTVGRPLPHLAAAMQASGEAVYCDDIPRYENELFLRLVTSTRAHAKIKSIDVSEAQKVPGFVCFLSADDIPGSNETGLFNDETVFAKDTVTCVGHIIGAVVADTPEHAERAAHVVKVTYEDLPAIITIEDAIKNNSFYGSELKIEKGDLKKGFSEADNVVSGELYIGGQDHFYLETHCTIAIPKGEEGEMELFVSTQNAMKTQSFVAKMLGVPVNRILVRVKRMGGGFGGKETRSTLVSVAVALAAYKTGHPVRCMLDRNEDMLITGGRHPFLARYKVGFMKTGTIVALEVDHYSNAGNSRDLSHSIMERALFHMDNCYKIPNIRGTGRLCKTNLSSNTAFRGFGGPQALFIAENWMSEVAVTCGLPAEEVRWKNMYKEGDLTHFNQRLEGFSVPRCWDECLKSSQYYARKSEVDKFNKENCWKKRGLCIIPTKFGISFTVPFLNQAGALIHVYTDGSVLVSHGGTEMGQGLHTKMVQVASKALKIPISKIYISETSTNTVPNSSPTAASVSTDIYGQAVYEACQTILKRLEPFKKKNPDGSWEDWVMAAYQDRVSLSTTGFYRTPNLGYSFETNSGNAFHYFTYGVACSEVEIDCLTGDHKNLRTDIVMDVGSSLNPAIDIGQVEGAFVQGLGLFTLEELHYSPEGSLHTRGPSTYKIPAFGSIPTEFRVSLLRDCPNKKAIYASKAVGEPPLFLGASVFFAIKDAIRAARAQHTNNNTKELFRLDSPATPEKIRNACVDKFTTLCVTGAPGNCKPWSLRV
Method: (§1) Chrysin-7-glucuronide (C7G) and 6-thiouric acid were purchased from Carbosynth (Berkshire, UK). Chrysin-7-sulfate (C7S) was synthetized as described. Stock solutions of flavonoids (each 2 mM) were prepared in dimethyl sulfoxide (DMSO) and stored at −20 °C.
(§2) To test the inhibitory effects of flavonoids and their metabolites on the XO-catalyzed oxidation of xanthine and 6MP, the previously reported methods were applied without modifications. […] In each experiment, solvent controls (DMSO) were used. Metabolite formation (% of control) was plotted vs. the inhibitor concentrations in decimal logarithmic scale. IC50 values were evaluated by sigmoidal fitting, employing GraphPad Prism 8 software (San Diego, CA, USA).
(§3) After the in vitro XO assays, xanthine and uric acid as well as 6MP and 6-thiouric acid were quantified by the HPLC-UV methods described in our previous report, without any modifications.

hyperuricaemic mice = settings: cited from earlier work; for serum uric acid levels: orally administered; for serum uric acid concentrations: hyperuricemic mice, per os, API 50 and 100 mg/kg, KAE 50 and 100 mg/kg, LUT 100 mg/kg
[2] = molecular target: T1, Xanthine oxidase (XO; from bovine milk); assay: XO-catalyzed xanthine oxidation (uric acid formation), HPLC; type: biochemical; settings: for IC50 (xanthine)/IC50 (6MP): ratio of IC50 values of xanthine and 6MP assays; for pIC50: substrate xanthine 5 μM, inhibitor 0–20 μM
Method: as §1, §2, §3

normal mice = test system: normal mice; design: method as in PMID 17666819; settings: per os; cited from earlier work
[3] = substrate 6MP 5 μM, inhibitor 0–20 μM, read-out: IC50(6MP)
[4] = hyperuricaemic mice, LUT 16–100 mg/kg, LUT-7-O-glucoside 50 and 100 mg/kg

Row | SMILES | pIC50 [1, 3] | serum uric acid concentrations (hyperuricaemic mice) | IC50 (xanthine)/IC50 (6MP) [2] | pIC50 [2] | also measured
1 | O=c1cc(-c2ccc(O)cc2)oc2cc(O)cc(O)c12 [Apigenin, 5,7,4’-trihydroxyflavone] | 7.05 | significantly decreased | 3.00 | 6.57 | pIC50 ([1]; substrate 6MP 5 μM, read-out: IC50 values on 6MP oxidation): > 7.00; serum uric acid levels (hyperuricaemic mice; hyperuricaemic mice, API 175–700 mg/kg): did not affect
2 | O=c1cc(-c2ccccc2)oc2cc(O)cc(O)c12 [Chrysin, 5,7-dihydroxyflavone] |  |  | 3.18 |  | pIC50 [1]: 6.66
3 | O=c1cc(-c2ccc(O)c(O)c2)oc2cc(O[C@@H]3O[C@H](CO)[C@@H](O)[C@H](O)[C@H]3O)cc(O)c12 [LUT-7-O-glucoside] |  |  |  |  | serum uric acid levels (hyperuricaemic mice; [4]): did not affect
4 | O=C(O)[C@H]1O[C@@H](Oc2cc(O)c3c(=O)cc(-c4ccccc4)oc3c2)[C@H](O)[C@@H](O)[C@@H]1O [Chrysin-7-glucuronide, chrysin-7-glucuronide] | < 4.70 |  |  | < 4.70 | 
5 | O=c1c(O)c(-c2ccc(O)cc2)oc2cc(O)cc(O)c12 [Kaempferol, 3,5,7,4′-tetrahydroxyflavone] |  | significantly decreased |  |  | uric acid levels (normal mice): decreased
6 | COc1cc(-c2oc3cc(O)ccc3c(=O)c2O)ccc1O [Geraldol, 3’-O-methylfisetin] | 5.92 |  | 0.57 | 6.17 | 
7 | O=c1cc(-c2ccccc2)oc2cc(OS(=O)(=O)O)cc(O)c12 [Chrysin-7-sulfate, chrysin-7-sulfate] | 5.65 |  |  | < 4.70 | 
8 | O=c1c(O)c(-c2ccc(O)c(O)c2)oc2cc(O)ccc12 [Fisetin, 3,7,3′,4′-tetrahydroxyflavone] | 5.96 |  | 0.78 | 6.07 | 
9 | O=c1cc(-c2ccc(O)c(O)c2)oc2cc(O)cc(O)c12 [Luteolin, 5,7,3′,4′-tetrahydroxyflavone] | 6.57 | significantly decreased | 0.59 | 6.80 | uric acid levels (hyperuricaemic mice; hyperuricaemic mice, i.p. administration, 50 mg/kg): slight but significant decrease; serum uric acid levels (hyperuricaemic mice; [4]): did not affect
